Patent US20100311714A1, “1H-IMIDAZO[4,5-c]QUINOLINONE COMPOUNDS” (priority 2009, published 2010)

test system: PKB Ser473 phosphorylation in Rat1-myr-HA-p110 delta cells; assay: Reverse protein array, PKB Ser473 phosphorylation in Rat1-myr-HA-p110 delta cells; assay type: cell-based; settings: Rattus norvegicus, 0.5 h, 30 minutes compound incubation, read-out: p-PKB/IC50_delta

Row | SMILES | IC50
1 | Cn1c(=O)n(-c2cccnc2F)c2c3cc(-c4cnc(N)c(C(F)(F)F)c4)ccc3ncc21 [Example 6.2, 8-(6-Amino-5-trifluoromethyl-pyridin-3-yl)-1-(2-fluoro-pyridin-3-yl)-3-methyl-1,3-dihydro-imidazo[4,5-c]quinolin-2-one] | 11.5 nM
2 | COc1ccc(-c2ccc3ncc4c(c3c2)n(-c2cnccc2C)c(=O)n4C)cn1 [Example 4.3, 8-(6-Methoxy-pyridin-3-yl)-3-methyl-1-(4-methyl-pyridin-3-yl)-1,3-dihydro-imidazo[4,5-c]quinolin-2-one] | 681 nM
3 | Cc1cccnc1-n1c(=O)n(C)c2cnc3ccc(-c4cnc(N)c(C(F)(F)F)c4)cc3c21 [Example 3.12, 8-(6-Amino-5-trifluoromethyl-pyridin-3-yl)-3-methyl-1-(3-methyl-pyridin-2-yl)-1,3-dihydro-imidazo[4,5-c]quinolin-2-one] | 75.5 nM
4 | CNc1ccc(-c2ccc3ncc4c(c3c2)n(-c2cccnc2C)c(=O)n4C)cn1 [Example 2.13, 3-Methyl-8-(6-methylamino-pyridin-3-yl)-1-(2-methyl-pyridin-3-yl)-1,3-dihydro-imidazo[4,5-c]quinolin-2-one] | 36.8 nM
5 | Cc1ncccc1-n1c(=O)n(C)c2cnc3ccc(-c4ccc(N)nc4)cc3c21 [Example 2.7, 8-(6-Amino-pyridin-3-yl)-3-methyl-1-(2-methyl-pyridin-3-yl)-1,3-dihydro-imidazo[4,5-c]quinolin-2-one] | 12.2 nM
6 | CCOc1cc(-c2ccc3ncc4c(c3c2)n(-c2cccnc2C)c(=O)n4C)cnc1COC [Example 2.28, 8-(5-Ethoxy-6-methoxymethyl-pyridin-3-yl)-3-methyl-1-(2-methyl-pyridin-3-yl)-1,3-dihydro-imidazo[4,5-c]quinolin-2-one] | 218 nM
7 | Cc1nc(F)ccc1-n1c(=O)n(C)c2cnc3ccc(-c4cncc(C(C)(C)O)c4)cc3c21 [Example 7.8, 1-(6-Fluoro-2-methyl-pyridin-3-yl)-8-[5-(1-hydroxy-1-methyl-ethyl)-pyridin-3-yl]-3-methyl-1,3-dihydro-imidazo[4,5-c]quinolin-2-one] | 80.8 nM
8 | CCOc1ccc(-c2ccc3ncc4c(c3c2)n(-c2cccnc2F)c(=O)n4C)cn1 [Example 6.1, 8-(6-Ethoxy-pyridin-3-yl)-1-(2-fluoro-pyridin-3-yl)-3-methyl-1,3-dihydro-imidazo[4,5-c]quinolin-2-one] | 144 nM
9 | COc1ccc(-c2ccc3ncc4c(c3c2)n(-c2cccnc2C)c(=O)n4C)cc1OC [Example 2.9, 8-(3,4-Dimethoxy-phenyl)-3-methyl-1-(2-methyl-pyridin-3-yl)-1,3-dihydro-imidazo[4,5-c]quinolin-2-one] | 34.1 nM
10 | CCOc1cc(-c2ccc3ncc4c(c3c2)n(-c2ccc(F)nc2C)c(=O)n4C)cnc1COC [Example 7.5, 8-(5-Ethoxy-6-methoxymethyl-pyridin-3-yl)-1-(6-fluoro-2-methyl-pyridin-3-yl)-3-methyl-1,3-dihydro-imidazo[4,5-c]quinolin-2-one] | 182 nM
11 | CNc1cc(-c2ccc3ncc4c(c3c2)n(-c2cccnc2C)c(=O)n4C)cnc1C [Example 2.32, 3-Methyl-8-(6-methyl-5-methylamino-pyridin-3-yl)-1-(2-methyl-pyridin-3-yl)-1,3-dihydro-imidazo[4,5-c]quinolin-2-one] | 33.7 nM
12 | CCOc1ncc(-c2ccc3ncc4c(c3c2)n(-c2cccnc2C)c(=O)n4C)cn1 [Example 2.5, 8-(2-Ethoxy-pyrimidin-5-yl)-3-methyl-1-(2-methyl-pyridin-3-yl)-1,3-dihydro-imidazo[4,5-c]quinolin-2-one] | 204 nM
13 | CNc1ccc(-c2ccc3ncc4c(c3c2)n(-c2ccc(F)nc2C)c(=O)n4C)cn1 [Example 7.4, 1-(6-Fluoro-2-methyl-pyridin-3-yl)-3-methyl-8-(6-methylamino-pyridin-3-yl)-1,3-dihydro-imidazo[4,5-c]quinolin-2-one] | 19.3 nM

The next lines start with the values.

Row | IC50 | SMILES
14 | 253 nM | CCNc1ncc(-c2ccc3ncc4c(c3c2)n(-c2ccc(N3CC[C@@H](O)C3)nc2C)c(=O)n4C)cc1COCC [Example 34.4, 8-(5-Ethoxymethyl-6-ethylamino-pyridin-3-yl)-1-[6-((R)-3-hydroxy-pyrrolidin-1-yl)-2-methyl-pyridin-3-yl]-3-methyl-1,3-dihydro-imidazo[4,5-c]quinolin-2-one]
15 | 43 nM | Cc1nc(C(F)(F)F)ccc1-n1c(=O)n(C)c2cnc3ccc(-c4cncc(C(C)(C)O)c4)cc3c21 [Example 33.1, 8-[5-(1-Hydroxy-1-methyl-ethyl)-pyridin-3-yl]-3-methyl-1-(2-methyl-6-trifluoromethyl-pyridin-3-yl)-1,3-dihydro-imidazo[4,5-c]quinolin-2-one]
16 | 65.3 nM | CNc1ncc(-c2ccc3ncc4c(c3c2)n(-c2ccc(N3CC(O)C3)nc2C)c(=O)n4C)cc1F [Example 29.3, 8-(5-Fluoro-6-methylamino-pyridin-3-yl)-1-[6-(3-hydroxy-azetidin-1-yl)-2-methyl-pyridin-3-yl]-3-methyl-1,3-dihydro-imidazo[4,5-c]quinolin-2-one]
17 | 123 nM | COCc1ncc(-c2ccc3ncc4c(c3c2)n(-c2ccc(N3CCC3)nc2C)c(=O)n4C)cc1OC(C)C [Example 23.2, 1-(6-Azetidin-1-yl-2-methyl-pyridin-3-yl)-8-(5-isopropoxy-6-methoxymethyl-pyridin-3-yl)-3-methyl-1,3-dihydro-imidazo[4,5-c]quinolin-2-one]
18 | 17.7 nM | CNc1ncc(-c2ccc3ncc4c(c3c2)n(-c2ccc(N3CC[C@H](O)C3)nc2C)c(=O)n4C)cn1 [Example 32.1, 1-[6-((S)-3-Hydroxy-pyrrolidin-1-yl)-2-methyl-pyridin-3-yl]-3-methyl-8-(2-methylamino-pyrimidin-5-yl)-1,3-dihydro-imidazo[4,5-c]quinolin-2-one]
19 | 401 nM | COc1cc(-c2ccc3ncc4c(c3c2)n(-c2ccc(N3CC(O)C3)nc2C)c(=O)n4C)cnc1CO [Example 29.5, 1-[6-(3-Hydroxy-azetidin-1-yl)-2-methyl-pyridin-3-yl]-8-(6-hydroxymethyl-5-methoxy-pyridin-3-yl)-3-methyl-1,3-dihydro-imidazo[4,5-c]quinolin-2-one]
20 | 25.4 nM | Cc1nc(N2CCCC2)ccc1-n1c(=O)n(C)c2cnc3ccc(-c4cncc(C(C)(C)O)c4)cc3c21 [Example 25.3, 8-[5-(1-Hydroxy-1-methyl-ethyl)-pyridin-3-yl]-3-methyl-1-(2-methyl-6-pyrrolidin-1-yl-pyridin-3-yl)-1,3-dihydro-imidazo[4,5-c]quinolin-2-one]
21 | 20.7 nM | CNc1ncc(-c2ccc3ncc4c(c3c2)n(-c2ccc(N3CCC(O)C3)nc2C)c(=O)n4C)cn1 (stereo not drawn) [Example 27.2, 1-[6-(3-Hydroxy-pyrrolidin-1-yl)-2-methyl-pyridin-3-yl]-3-methyl-8-(2-methylamino-pyrimidin-5-yl)-1,3-dihydro-imidazo[4,5-c]quinolin-2-one]
22 | 66.9 nM | Cc1nc(N2CCC2)ccc1-n1c(=O)n(C)c2cnc3ccc(-c4cncc(N5CCC5)c4)cc3c21 [Example 23.1, 1-(6-Azetidin-1-yl-2-methyl-pyridin-3-yl)-8-(5-azetidin-1-yl-pyridin-3-yl)-3-methyl-1,3-dihydro-imidazo[4,5-c]quinolin-2-one]
23 | 10.4 nM | CNc1ncc(-c2ccc3ncc4c(c3c2)n(-c2ccc(N(C)CCO)nc2C)c(=O)n4C)cn1 [Example 26.2, 1-{6-[(2-Hydroxy-ethyl)-methyl-amino]-2-methyl-pyridin-3-yl}-3-methyl-8-(2-methylamino-pyrimidin-5-yl)-1,3-dihydro-imidazo[4,5-c]quinolin-2-one]
24 | 216 nM | COCc1ncc(-c2ccc3ncc4c(c3c2)n(-c2ccc(N3CCC3)nc2C)c(=O)n4C)cc1OC [Example 23.6, 1-(6-Azetidin-1-yl-2-methyl-pyridin-3-yl)-8-(5-methoxy-6-methoxymethyl-pyridin-3-yl)-3-methyl-1,3-dihydro-imidazo[4,5-c]quinolin-2-one]
25 | 10.3 nM | Cc1nc(N2CCN(C)C(=O)C2)ccc1-n1c(=O)n(C)c2cnc3ccc(-c4cnc(N)c(C(F)(F)F)c4)cc3c21 [Example 21.1, 8-(6-Amino-5-trifluoromethyl-pyridin-3-yl)-3-methyl-1-[2-methyl-6-(4-methyl-3-oxo-piperazin-1-yl)-pyridin-3-yl]-1,3-dihydro-imidazo[4,5-c]quinolin-2-one]
26 | 39.7 nM | CCNc1cc(-c2ccc3ncc4c(c3c2)n(-c2ccc(N3CC(O)C3)nc2C)c(=O)n4C)cnc1CO [Example 29.2, 8-(5-Ethylamino-6-hydroxymethyl-pyridin-3-yl)-1-[6-(3-hydroxy-azetidin-1-yl)-2-methyl-pyridin-3-yl]-3-methyl-1,3-dihydro-imidazo[4,5-c]quinolin-2-one]
27 | 16 nM | CNc1ncc(-c2ccc3ncc4c(c3c2)n(-c2ccc(N3CC[C@H](O)C3)nc2C)c(=O)n4C)cc1C(F)(F)F [Example 32.5, 1-[6-((S)-3-Hydroxy-pyrrolidin-1-yl)-2-methyl-pyridin-3-yl]-3-methyl-8-(6-methylamino-5-trifluoromethyl-pyridin-3-yl)-1,3-dihydro-imidazo[4,5-c]quinolin-2-one]
28 | 119 nM | COc1ncc(-c2ccc3ncc4c(c3c2)n(-c2ccc(N3CC(O)C3)nc2C)c(=O)n4C)c(OC)n1 [Example 29.6, 8-(2,4-Dimethoxy-pyrimidin-5-yl)-1-[6-(3-hydroxy-azetidin-1-yl)-2-methyl-pyridin-3-yl]-3-methyl-1,3-dihydro-imidazo[4,5-c]quinolin-2-one]
29 | 95.3 nM | Cc1nc(N2CC[C@H](O)C2)ccc1-n1c(=O)n(C)c2cnc3ccc(-c4cncc(OC(C)C)c4)cc3c21 [Example 32.8, 1-[6-((S)-3-Hydroxy-pyrrolidin-1-yl)-2-methyl-pyridin-3-yl]-8-(5-isopropoxy-pyridin-3-yl)-3-methyl-1,3-dihydro-imidazo[4,5-c]quinolin-2-one]
30 | 80.1 nM | Cc1nc(N2CCC2)ccc1-n1c(=O)n(C)c2cnc3ccc(-c4cncc(OC(C)C)c4)cc3c21 [Example 23.9, 1-(6-Azetidin-1-yl-2-methyl-pyridin-3-yl)-8-(5-isopropoxy-pyridin-3-yl)-3-methyl-1,3-dihydro-imidazo[4,5-c]quinolin-2-one]
